Assays:
[1] = biological target: T1, Heme-free sGC (recombinant soluble guanylate cyclase) (Rattus norvegicus, UniProt P20595); experiment: Stimulation of recombinant soluble guanylate cyclase (sGC) in vitro, heme-free enzyme; assay type: biochemical
T1 construct: made in house; host or cells: baculovirus/Sf9 insect cells
T1 sequence (P20595 1-619): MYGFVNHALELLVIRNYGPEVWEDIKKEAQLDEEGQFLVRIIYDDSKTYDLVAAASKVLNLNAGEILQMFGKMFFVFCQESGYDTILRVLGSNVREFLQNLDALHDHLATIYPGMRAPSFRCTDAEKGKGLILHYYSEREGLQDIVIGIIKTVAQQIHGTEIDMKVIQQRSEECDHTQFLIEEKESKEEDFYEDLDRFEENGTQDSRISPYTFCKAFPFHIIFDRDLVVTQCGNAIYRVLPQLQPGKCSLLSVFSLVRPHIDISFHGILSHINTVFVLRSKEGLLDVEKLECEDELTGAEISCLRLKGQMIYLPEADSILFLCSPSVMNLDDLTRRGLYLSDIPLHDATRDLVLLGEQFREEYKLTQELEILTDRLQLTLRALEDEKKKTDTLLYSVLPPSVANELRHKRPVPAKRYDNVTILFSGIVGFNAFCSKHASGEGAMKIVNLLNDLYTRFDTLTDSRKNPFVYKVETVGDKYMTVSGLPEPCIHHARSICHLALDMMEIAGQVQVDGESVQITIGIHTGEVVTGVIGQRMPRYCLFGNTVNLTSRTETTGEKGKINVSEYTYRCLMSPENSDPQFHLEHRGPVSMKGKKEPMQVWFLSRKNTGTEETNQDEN
T1 sequence (P19686 1-690 partner): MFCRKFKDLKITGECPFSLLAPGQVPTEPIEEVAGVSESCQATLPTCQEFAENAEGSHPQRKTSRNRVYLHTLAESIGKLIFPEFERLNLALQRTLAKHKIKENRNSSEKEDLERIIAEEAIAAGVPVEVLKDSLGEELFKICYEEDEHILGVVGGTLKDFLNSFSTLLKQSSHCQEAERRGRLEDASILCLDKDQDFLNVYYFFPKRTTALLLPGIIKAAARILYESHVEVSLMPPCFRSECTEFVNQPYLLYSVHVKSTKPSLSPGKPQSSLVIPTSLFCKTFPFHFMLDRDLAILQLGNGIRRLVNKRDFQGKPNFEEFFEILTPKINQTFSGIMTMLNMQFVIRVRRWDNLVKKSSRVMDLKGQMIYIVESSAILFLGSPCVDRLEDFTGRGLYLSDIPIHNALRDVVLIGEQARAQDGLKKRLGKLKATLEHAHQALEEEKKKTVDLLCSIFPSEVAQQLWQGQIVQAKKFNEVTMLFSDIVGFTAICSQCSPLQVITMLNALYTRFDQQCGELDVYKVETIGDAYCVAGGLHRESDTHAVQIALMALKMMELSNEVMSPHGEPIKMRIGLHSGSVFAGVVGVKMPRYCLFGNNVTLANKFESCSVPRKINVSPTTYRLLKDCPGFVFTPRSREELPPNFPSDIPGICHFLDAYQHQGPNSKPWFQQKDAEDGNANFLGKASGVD
Experimental: Investigations on the stimulation of recombinant soluble guanylate cyclase (sGC) by the compounds according to the invention with and without sodium nitroprusside, and with and without the heme-dependent sGC inhibitor 1H-1,2,4-oxadiazole-(4,3a)-quinoxalin-1-one (ODQ) are carried out by the method described in detail in the following reference: M. Hoenicka, E. M. Becker, H. Apeler, T. Sirichoke, H. Schroeder, R. Gerzer and J.-P. Stasch, “Purified soluble guanylyl cyclase expressed in a baculovirus/Sf9 system: Stimulation by YC-1, nitric oxide, and […]”, J. Mol. Med. 77 (1999), 14-23. The heme-free guanylate cyclase is obtained by adding Tween 20 to the sample buffer (0.5% in the final concentration).
(§1) The activation of sGC by a test substance is reported as n-fold stimulation of the basal activity.

saphenous artery rings = experiment: Vasorelaxant effect in vitro (phenylephrine-contracted artery rings); assay type: cell-based; settings: rabbit saphenous artery rings, contraction induced by phenylephrine
Experimental: Rabbits are anesthetized and sacrificed by intravenous injection of thiopental sodium (about 50 mg/kg) and exsanguinated. The saphenous artery is removed and divided into rings 3 mm wide. The rings are mounted singly on in each case a pair of triangular hooks open at the end and made of 0.3 mm-thick special wire (Remanium®). Each ring is placed under an initial tension in 5 ml organ baths with Krebs-Henseleit solution which is at 37° C., is gassed with 95% O2/5% CO2 and has the following composition: NaCl 119 mM; KCl 4.8 mM; CaCl2×2H2O 1 mM; MgSO4×7 H2O 1.4 mM; KH2PO4 1.2 mM; NaHCO3 25 mM; glucose 10 mM; bovine serum albumin 0.001%. The force of contraction is detected with Statham UC2 cells, amplified and digitized via A/D converters (DAS-1802 HC, Keithley Instruments, Munich) and recorded in parallel on chart recorders. Contractions are induced by addition of phenylephrine.
After several (generally 4) control cycles, the substance to be investigated is added in each further run in increasing dosage, and the height of the contraction achieved under the influence of the test substance is compared with the height of the contraction reached in the last preceding run. The concentration necessary to reduce the contraction reached in the preceding control by 50% is calculated from this (IC50). The standard application volume is 5 μl. The proportion of DMSO in the bath solution corresponds to 0.1%.

[2] = biological target: T2, Heme-containing sGC (recombinant soluble guanylate cyclase) (Rattus norvegicus, UniProt P20595); experiment: Stimulation of recombinant soluble guanylate cyclase (sGC) in vitro, heme-containing enzyme; assay type: biochemical
T2 construct: made in house; host or cells: baculovirus/Sf9 insect cells
T2 sequence (P20595 1-619): T1 sequence (P20595 1-619)
T2 sequence (P19686 1-690 partner): T1 sequence (P19686 1-690 partner)
Source text: Hoenicka, E. M. Becker, H. Apeler, T. Sirichoke, H. Schroeder, R. Gerzer and J.-P. Stasch, “Purified soluble guanylyl cyclase expressed in a baculovirus/Sf9 system: Stimulation by YC-1, nitric oxide, and carbon oxide”, J. Mol. Med. 77 (1999), 14-23. The heme-free guanylate cyclase is obtained by adding Tween 20 to the sample buffer (0.5% in the final concentration).
as §1

[3] = 0.001 μM Example 13 + 10 μM ODQ

**Q.** With `CC(C)(C)c1ccc(COc2ccccc2/C=C/C(CCc2ccc(C(=O)O)cc2)Cc2cc(F)c(O)c(F)c2)cc1` (single isomer, unassigned) [Example 13, E4-[5-[2-(4-tert-Butylbenzyloxy)phenyl]-3-(3,5-difluoro-4-hydroxybenzyl)pent-4-enyl]benzoic acid] as the molecule, how does the “Stimulation (n-fold) of heme-free sGC, Basal” value ([1]; 0.001 μM Example 13) read?
**A.** The value was 4.1 n-fold.

**Q.** What about the “Stimulation (n-fold) of heme-free sGC, +10 μM ODQ” value [1, 3] of the same molecule?
**A.** Its value is 4.0 n-fold.

**Q.** And the “Stimulation (n-fold) of heme-free sGC, Basal” value ([1]; 0.01 μM Example 13)?
**A.** Its value is 30.6 n-fold.

**Q.** And the “Stimulation (n-fold) of heme-free sGC, +10 μM ODQ” value ([1]; 0.01 μM Example 13 + 10 μM ODQ)?
**A.** The value was 27.1 n-fold.

**Q.** And the “Stimulation (n-fold) of heme-free sGC, Basal” value ([1]; 0.1 μM Example 13)?
**A.** Its value is 94.4 n-fold.

**Q.** What about the “Stimulation (n-fold) of heme-free sGC, +10 μM ODQ” value ([1]; 0.1 μM Example 13 + 10 μM ODQ) of the same molecule?
**A.** Its value is 88.6 n-fold.

**Q.** What about the “Stimulation (n-fold) of heme-free sGC, Basal” value ([1]; 1 μM Example 13) of the same molecule?
**A.** The value was 122.8 n-fold.

**Q.** And the “Stimulation (n-fold) of heme-free sGC, +10 μM ODQ” value ([1]; 1 μM Example 13 + 10 μM ODQ)?
**A.** Its value is 118.5 n-fold.

**Q.** And the “Stimulation (n-fold) of heme-free sGC, Basal” value ([1]; 10 μM Example 13)?
**A.** Its value is 126.3 n-fold.

**Q.** And the “Stimulation (n-fold) of heme-free sGC, +10 μM ODQ” value ([1]; 10 μM Example 13 + 10 μM ODQ)?
**A.** Its value is 118.4 n-fold.

**Q.** And the IC50 (saphenous artery rings)?
**A.** The IC50 was 24.5 nM.

**Q.** And the “Stimulation (n-fold) of heme-containing sGC, Basal” value ([2]; 0.001 μM Example 13)?
**A.** Its value is 1.7 n-fold.

**Q.** What about the “Stimulation (n-fold) of heme-containing sGC, +0.1 μM DEA/NO” value (“Stimulation (n-fold) … +0.1 μM DEA/NO” below) ([2]; 0.001 μM Example 13 + 0.1 μM DEA/NO) of the same molecule?
**A.** Its value is 26.3 n-fold.

**Q.** And the “Stimulation (n-fold) of heme-containing sGC, +10 μM ODQ” value [2, 3]?
**A.** Its value is 37.5 n-fold.

**Q.** And the “Stimulation (n-fold) of heme-containing sGC, Basal” value ([2]; 0.01 μM Example 13)?
**A.** The value was 6.7 n-fold.

**Q.** What about the “Stimulation (n-fold) … +0.1 μM DEA/NO” value ([2]; 0.01 μM Example 13 + 0.1 μM DEA/NO) of the same molecule?
**A.** The value was 31.2 n-fold.

**Q.** What about the “Stimulation (n-fold) of heme-containing sGC, +10 μM ODQ” value ([2]; 0.01 μM Example 13 + 10 μM ODQ) of the same molecule?
**A.** Its value is 38.8 n-fold.

**Q.** What about the “Stimulation (n-fold) of heme-containing sGC, Basal” value ([2]; 0.1 μM Example 13) of the same molecule?
**A.** Its value is 19.2 n-fold.

**Q.** And the “Stimulation (n-fold) … +0.1 μM DEA/NO” value ([2]; 0.1 μM Example 13 + 0.1 μM DEA/NO)?
**A.** Its value is 40.2 n-fold.

**Q.** And the “Stimulation (n-fold) of heme-containing sGC, +10 μM ODQ” value ([2]; 0.1 μM Example 13 + 10 μM ODQ)?
**A.** Its value is 43.8 n-fold.

**Q.** And the “Stimulation (n-fold) of heme-containing sGC, Basal” value ([2]; 1 μM Example 13)?
**A.** Its value is 24.2 n-fold.

**Q.** And the “Stimulation (n-fold) … +0.1 μM DEA/NO” value ([2]; 1 μM Example 13 + 0.1 μM DEA/NO)?
**A.** The value was 43.2 n-fold.

**Q.** What about the “Stimulation (n-fold) of heme-containing sGC, +10 μM ODQ” value ([2]; 1 μM Example 13 + 10 μM ODQ) of the same molecule?
**A.** Its value is 52.2 n-fold.

**Q.** What about the “Stimulation (n-fold) of heme-containing sGC, Basal” value ([2]; 10 μM Example 13) of the same molecule?
**A.** The value was 36.2 n-fold.

**Q.** What about the “Stimulation (n-fold) … +0.1 μM DEA/NO” value ([2]; 10 μM Example 13 + 0.1 μM DEA/NO) of the same molecule?
**A.** The value was 62.0 n-fold.

**Q.** What about the “Stimulation (n-fold) of heme-containing sGC, +10 μM ODQ” value ([2]; 10 μM Example 13 + 10 μM ODQ) of the same molecule?
**A.** Its value is 63.7 n-fold.

**Q.** What about the “Effect of combination with the NO donor DEA/NO on sGC stimulation” value ([2]; combination with DEA/NO) of the same molecule?
**A.** The value was “no synergistic effect”.

**Q.** And the “Effect of the heme-dependent sGC inhibitor ODQ on the sGC activation” value ([2]; with ODQ, effect is in fact increased)?
**A.** Its value is “not blocked”.

**Q.** With `O=C(O)CCCCC(/C=C/c1cc(F)ccc1OCc1ccc(-c2ccc(C(F)(F)F)cc2)cc1)Cc1cc(F)c(O)c(F)c1` (single isomer, unassigned) [Example 5, E-6-(3,5-Difluoro-4-hydroxybenzyl)-8-[5-fluoro-2-(4′-trifluoromethylbiphenyl-4-ylmethoxy)phenyl]oct-7-enoic acid] as the molecule, how does the IC50 (saphenous artery rings) read?
**A.** Its IC50 is 300 nM.

**Q.** For `O=C(O)CCCCC(/C=C/c1cc(F)ccc1OCc1ccc(-c2ccc(C(F)(F)F)cc2)cc1)Cc1cc(F)c(O)c(F)c1` (single isomer, unassigned) [Example 4, E-6-(3,5-Difluoro-4-hydroxybenzyl)-8-[5-fluoro-2-(4′-trifluoromethylbiphenyl-4-ylmethoxy)phenyl]oct-7-enoic acid], which IC50 (saphenous artery rings) is on record?
**A.** The IC50 was 960 nM.

**Q.** For `CC(C)(C)c1ccc(COc2ccccc2/C=C/C(CCc2ccc(C(=O)O)cc2)Cc2cc(F)c(O)c(F)c2)cc1` (single isomer, unassigned) [Example 14, E-4-[5-[2-(4-tert-Butylbenzyloxy)phenyl]-3-(3,5-difluoro-4-hydroxybenzyl)pent-4-enyl]benzoic acid], which IC50 (saphenous artery rings) is on record?
**A.** Its IC50 is 1220 nM.

**Q.** For `O=C(O)CCCCN(CCc1cc(F)ccc1OCc1ccc(-c2ccc(C(F)(F)F)cc2)cc1)Cc1cc(F)c(O)c(F)c1` [Example 18, 5-{(3,5-Difluoro-4-hydroxybenzyl)-[2-(5-fluoro-2-{[4′-(trifluoromethyl)biphenyl-4-yl]methoxy}phenyl)ethyl]amino}pentanoic acid], which IC50 (saphenous artery rings; Oryctolagus cuniculus) is on record?
**A.** The IC50 was 43 nM.

**Q.** For `O=C(O)CCCCC(/C=C\c1cc(F)ccc1OCc1ccc(-c2ccc(C(F)(F)F)cc2)cc1)Cc1cc(F)c(O)c(F)c1` (single isomer, unassigned) [Example 7, Z-6-(3,5-Difluoro-4-hydroxybenzyl)-8-[5-fluoro-2-(4′-trifluoromethylbiphenyl-4-ylmethoxy)phenyl]oct-7-enoic acid], which IC50 (saphenous artery rings) is on record?
**A.** Its IC50 is 2600 nM.

**Q.** `O=C(O)CCCCC(/C=C\c1cc(F)ccc1OCc1ccc(-c2ccc(C(F)(F)F)cc2)cc1)Cc1cc(F)c(O)c(F)c1` (single isomer, unassigned) [Example 6, Z-6-(3,5-Difluoro-4-hydroxybenzyl)-8-[5-fluoro-2-(4′-trifluoromethylbiphenyl-4-ylmethoxy)phenyl]oct-7-enoic acid] was tested. Which IC50 (saphenous artery rings; Oryctolagus cuniculus) did it give?
**A.** Its IC50 is 2700 nM.

**Q.** `O=C(O)CCCCC(/C=C/c1cc(F)ccc1OCc1ccccc1Cl)Cc1cc(F)c(O)c(F)c1` (single isomer, unassigned) [Example 8, E-8-[2-(2-Chlorobenzyloxy)-5-fluorophenyl]-6-(3,5-difluoro-4-hydroxybenzyl)oct-7-enoic acid] was tested. Which IC50 (saphenous artery rings; Oryctolagus cuniculus) did it give?
**A.** Its IC50 is 647 nM.
